# Literature values as cited in US10806143B2, “Herbicidal composition in granular form” (priority 2009, dated 2020).
# Conditions: at 20° C.
smiles,measurement,value
"CCOC(=O)C(Cl)Cc1cc(-n2nc(C)n(C(F)F)c2=O)c(F)cc1Cl (stereo not shown) [carfentrazone-ethyl, ethyl 2-chloro-3-[2-chloro-5-(4-difluoromethyl-3-methyl-5-oxo-4,5-dihydro-[1,2,4]triazol-1-yl)-4-fluorophenyl]propionate]",water solubility,22 milligrams per liter
